Patent publication US20240116985A1, “STAPLED PEPTIDES AND METHODS THEREOF” (priority 2020, published 2024)
Where two headings read alike, the source gives them in different places.

How the values were obtained:
[1] = target: T1, beta-catenin/TCF4 engagement (Homo sapiens, UniProt P35222); assay: Nano-BRET target engagement assay (B-cat-Halo & TCF4-Luc in HEK293 cells); assay type: cell-based
T1 construct: expressed in transfected cells; host or cells: HEK293
T1 sequence (P35222 1-781): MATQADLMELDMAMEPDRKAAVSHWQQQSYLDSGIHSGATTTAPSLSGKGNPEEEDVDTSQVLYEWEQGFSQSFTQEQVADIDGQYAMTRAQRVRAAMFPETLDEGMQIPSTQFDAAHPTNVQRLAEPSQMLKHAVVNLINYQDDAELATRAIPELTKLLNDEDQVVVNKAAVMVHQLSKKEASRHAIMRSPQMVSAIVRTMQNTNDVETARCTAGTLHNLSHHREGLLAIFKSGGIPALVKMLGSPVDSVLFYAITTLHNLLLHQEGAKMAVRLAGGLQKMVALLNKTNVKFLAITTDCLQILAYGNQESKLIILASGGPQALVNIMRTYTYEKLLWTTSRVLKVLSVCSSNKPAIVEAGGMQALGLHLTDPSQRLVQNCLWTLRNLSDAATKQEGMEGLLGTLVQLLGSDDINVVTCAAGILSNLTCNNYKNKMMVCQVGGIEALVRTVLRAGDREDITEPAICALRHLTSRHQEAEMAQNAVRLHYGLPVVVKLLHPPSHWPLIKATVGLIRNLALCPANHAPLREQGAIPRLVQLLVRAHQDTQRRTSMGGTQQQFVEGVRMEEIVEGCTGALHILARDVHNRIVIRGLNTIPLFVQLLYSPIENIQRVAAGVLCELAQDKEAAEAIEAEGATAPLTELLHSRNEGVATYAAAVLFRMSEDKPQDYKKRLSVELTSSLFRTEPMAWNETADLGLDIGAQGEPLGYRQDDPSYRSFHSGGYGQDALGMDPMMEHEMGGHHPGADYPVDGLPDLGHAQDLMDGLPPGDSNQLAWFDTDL

[2] = target: T2, full-length beta-Catenin (Uniprot ID P35222) (Homo sapiens, UniProt P35222); assay: Fluorescence polarization IC50 (beta-catenin / 5FAM-TCF4 10-53 competition); assay type: binding
T2 construct: 10 nM full-length beta-Catenin (Uniprot ID P35222)
T2 sequence (P35222 1-781): T1 sequence (P35222 1-781)

[3] = absolute IC50; read-out: NanoBRET Abs IC50
[4] = fluorescence polarization; read-out: beta-Catenin FP IC50

| IC50 [1, 3] | IC50 [2, 4] | Structure (SMILES) | IC50 ([1]; read-out: NanoBRET Abs IC50; absolute IC50) | IC50 ([2]; read-out: beta-Catenin FP IC50; fluorescence polarization) |
| --- | --- | --- | --- | --- |
| 3 µM | 43 nM | CC(=O)N1CCC[C@]12CC=CCCCC1(CCCC=CCCCOC(=O)N3CC[C@@](C(=O)N[C@@H](Cc4ccsc4)C(=O)N[C@@H](Cc4csc5ccccc45)C(=O)N[C@@H](CC(N)=O)C(=O)N[C@@H](C)C(=O)NC(C)(C)C(=O)N[C@@H](C)C(=O)NC(C)(C)C(=O)N[C@@H](C)C(N)=O)(C3)NC(=O)[C@H](CC(C)C)NC(=O)[C@H](Cc3ccccc3)NC(=O)[C@H](C)NC(=O)[C@H](C)NC(=O)[C@H](Cc3cccc(C(=O)O)c3)NC(=O)[C@H](CC(=O)O)NC1=O)NC(=O)[C@H](CC(C)(C)C)NC(=O)[C@H](CC(=O)O)NC2=O (stereo partly drawn) [I-2272, Ac-PL3-Asp-Npg-B5-Asp-3COOHF-Ala-Ala-Phe-Leu-PyrS2-3Thi-BztA-Asn-Ala-Aib-Ala-Aib-Ala-NH2] |  |  |
| 6.2 µM | 107 nM | CC(=O)N1CCC[C@]12CC=CCCCC1(CCCC=CCCCOC(=O)N3CC[C@@](C(=O)N[C@@H](Cc4ccsc4)C(=O)N[C@@H](Cc4csc5ccccc45)C(=O)N[C@@H](CC(N)=O)C(=O)N[C@@H](C)C(=O)NC(C)(C)C(=O)N[C@@H](C)C(=O)NC(C)(C)C(=O)N[C@@H](C)C(=O)NC(C)(C)C(=O)N[C@@H](C)C(N)=O)(C3)NC(=O)[C@H](CC(C)C)NC(=O)[C@H](Cc3ccccc3)NC(=O)[C@H](C)NC(=O)[C@H](C)NC(=O)[C@H](Cc3cccc(C(=O)O)c3)NC(=O)[C@H](CC(=O)O)NC1=O)NC(=O)[C@H](CC(C)(C)C)NC(=O)[C@H](CC(=O)O)NC2=O (stereo partly drawn) [I-2273, Ac-PL3-Asp-Npg-B5-Asp-3COOHF-Ala-Ala-Phe-Leu-PyrS2-3Thi-BztA-Asn-Ala-Aib-Ala-Aib-Ala-Aib-Ala-NH2] |  |  |
| 2.3 µM | 114 nM | CC(=O)N1CCC[C@]12CC=CCCCC1(CCCC=CCCCOC(=O)N3CC[C@@](C(=O)N[C@@H](Cc4ccsc4)C(=O)N[C@@H](Cc4csc5ccccc45)C(=O)N[C@@H](CC(N)=O)C(=O)N[C@@H](C)C(=O)N[C@@H](CC(C)C)C(=O)N[C@@H](CC(C)C)C(N)=O)(C3)NC(=O)[C@H](CC(C)C)NC(=O)[C@H](Cc3ccccc3)NC(=O)[C@H](C)NC(=O)[C@H](C)NC(=O)[C@H](Cc3cccc(C(=O)O)c3)NC(=O)[C@H](CC(=O)O)NC1=O)NC(=O)[C@H](CC(C)(C)C)NC(=O)[C@H](CC(=O)O)NC2=O (stereo partly drawn) [I-2277, Ac-PL3-Asp-Npg-B5-Asp-3COOHF-Ala-Ala-Phe-Leu-PyrS2-3Thi-BztA-Asn-Ala-Leu-Leu-NH2] |  |  |
| 2.8 µM | 120 nM | CC(=O)N1CCC[C@]12CC=CCCCC1(CCCC=CCCCOC(=O)N3CC[C@@](C(=O)N[C@@H](Cc4ccsc4)C(=O)N[C@@H](Cc4csc5ccccc45)C(=O)N[C@@H](CC(N)=O)C(=O)N[C@@H](C)C(=O)N[C@@H](CC(C)C)C(=O)N[C@@H](CC(C)C)C(N)=O)(C3)NC(=O)[C@H](CC(C)C)NC(=O)[C@H](Cc3ccccc3)NC(=O)[C@H](C)NC(=O)[C@H](C)NC(=O)[C@H](Cc3cccc(C(=O)O)c3)NC(=O)[C@H](CC(=O)O)NC1=O)NC(=O)[C@H](CC(C)(C)C)NC(=O)[C@H](CC(=O)O)NC2=O (stereo partly drawn) [I-2278, Ac-PL3-Asp-Npg-B5-Asp-3COOHF-Ala-Ala-Phe-Leu-PyrS2-3Thi-BztA-Asn-Ala-Leu-Leu-NH2] |  |  |
|  |  | CC(=O)N1CCC[C@]12CC=CCCCC1(CCCC=CCCCOC(=O)N3CC[C@@](C(=O)N[C@@H](Cc4ccsc4)C(=O)N[C@@H](Cc4csc5ccccc45)C(=O)N[C@@H](CC(N)=O)C(=O)N[C@@H](CC(C)C)C(=O)N[C@@H](CC(C)C)C(=O)N[C@@H](CC(C)C)C(=O)N[C@@H](CC(C)C)C(=O)N[C@@H](CC(C)C)C(N)=O)(C3)NC(=O)[C@H](CC(C)C)NC(=O)[C@H](Cc3ccccc3)NC(=O)[C@H](C)NC(=O)[C@H](C)NC(=O)[C@H](Cc3cccc(C(=O)O)c3)NC(=O)[C@H](CC(=O)O)NC1=O)NC(=O)[C@H](CC(C)(C)C)NC(=O)[C@H](CC(=O)O)NC2=O (stereo partly drawn) [I-2279, Ac-PL3-Asp-Npg-B5-Asp-3COOHF-Ala-Ala-Phe-Leu-PyrS2-3Thi-BztA-Asn-Leu-Leu-Leu-Leu-Leu-NH2] | > 20 µM | 7230 nM |
| 4.3 µM | 138 nM | CC(=O)N1CCC[C@]12CC=CCCCC1(CCCC=CCCCOC(=O)N3CC[C@@](C(=O)N[C@@H](Cc4ccsc4)C(=O)N[C@@H](Cc4csc5ccccc45)C(=O)N[C@@H](CC(N)=O)C(=O)N[C@@H](C)C(=O)N[C@@H](CC(C)C)C(=O)N[C@@H](C)C(=O)N[C@@H](CC(C)C)C(=O)N[C@@H](C)C(N)=O)(C3)NC(=O)[C@H](CC(C)C)NC(=O)[C@H](Cc3ccccc3)NC(=O)[C@H](C)NC(=O)[C@H](C)NC(=O)[C@H](Cc3cccc(C(=O)O)c3)NC(=O)[C@H](CC(=O)O)NC1=O)NC(=O)[C@H](CC(C)(C)C)NC(=O)[C@H](CC(=O)O)NC2=O (stereo partly drawn) [I-2281, Ac-PL3-Asp-Npg-B5-Asp-3COOHF-Ala-Ala-Phe-Leu-PyrS2-3Thi-BztA-Asn-Ala-Leu-Ala-Leu-Ala-NH2] |  |  |
| 3.7 µM | 155 nM | CC(=O)N1CCC[C@]12CC=CCCCC1(CCCC=CCCCOC(=O)N3CC[C@@](C(=O)N[C@@H](Cc4ccsc4)C(=O)N[C@@H](Cc4csc5ccccc45)C(=O)N[C@@H](CC(N)=O)C(=O)N[C@@H](C)C(=O)N[C@@H](CC(C)C)C(=O)N[C@@H](C)C(=O)N[C@@H](CC(C)C)C(=O)N[C@@H](C)C(N)=O)(C3)NC(=O)[C@H](CC(C)C)NC(=O)[C@H](Cc3ccccc3)NC(=O)[C@H](C)NC(=O)[C@H](C)NC(=O)[C@H](Cc3cccc(C(=O)O)c3)NC(=O)[C@H](CC(=O)O)NC1=O)NC(=O)[C@H](CC(C)(C)C)NC(=O)[C@H](CC(=O)O)NC2=O (stereo partly drawn) [I-2282, Ac-PL3-Asp-Npg-B5-Asp-3COOHF-Ala-Ala-Phe-Leu-PyrS2-3Thi-BztA-Asn-Ala-Leu-Ala-Leu-Ala-NH2] |  |  |
| 4.5 µM | 2860 nM | CC(=O)N1CCC[C@]12CC=CCCCC1(CCCC=CCCCOC(=O)N3CC[C@@](C(=O)N[C@@H](Cc4ccsc4)C(=O)N[C@@H](Cc4csc5ccccc45)C(=O)N[C@@H](CC(N)=O)C(=O)N[C@@H](C)C(=O)N[C@@H](CC(C)C)C(=O)N[C@@H](C)C(=O)N[C@@H](CC(C)C)C(=O)N[C@@H](C)C(=O)N[C@@H](CC(C)C)C(=O)N[C@@H](C)C(N)=O)(C3)NC(=O)[C@H](CC(C)C)NC(=O)[C@H](Cc3ccccc3)NC(=O)[C@H](C)NC(=O)[C@H](C)NC(=O)[C@H](Cc3cccc(C(=O)O)c3)NC(=O)[C@H](CC(=O)O)NC1=O)NC(=O)[C@H](CC(C)(C)C)NC(=O)[C@H](CC(=O)O)NC2=O (stereo partly shown) [I-2283] |  |  |
| 12.9 µM | 2680 nM | CC(=O)N1CCC[C@]12CC=CCCCC1(CCCC=CCCCOC(=O)N3CC[C@@](C(=O)N[C@@H](Cc4ccsc4)C(=O)N[C@@H](Cc4csc5ccccc45)C(=O)N[C@@H](CC(N)=O)C(=O)N[C@@H](C)C(=O)N[C@@H](CC(C)C)C(=O)N[C@@H](C)C(=O)N[C@@H](CC(C)C)C(=O)N[C@@H](C)C(=O)N[C@@H](CC(C)C)C(=O)N[C@@H](C)C(N)=O)(C3)NC(=O)[C@H](CC(C)C)NC(=O)[C@H](Cc3ccccc3)NC(=O)[C@H](C)NC(=O)[C@H](C)NC(=O)[C@H](Cc3cccc(C(=O)O)c3)NC(=O)[C@H](CC(=O)O)NC1=O)NC(=O)[C@H](CC(C)(C)C)NC(=O)[C@H](CC(=O)O)NC2=O (stereo partly shown) [I-2284] |  |  |
| 7.1 µM | 7 nM | CC(=O)N1CCC[C@]12CC=CCCCC1(CCCC=CCCCOC(=O)N3CC[C@@](C(=O)N[C@@H](Cc4ccsc4)C(=O)N[C@@H](Cc4ccc(F)c(Br)c4)C(=O)N[C@@H](CCC(N)=O)C(N)=O)(C3)NC(=O)[C@H](CC(C)C)NC(=O)[C@H](Cc3ccccc3)NC(=O)[C@H](C)NC(=O)[C@H](C)NC(=O)[C@H](Cc3cccc(C(=O)O)c3)NC(=O)[C@H](CC(=O)O)NC1=O)NC(=O)[C@H](CC(C)(C)C)NC(=O)[C@H](CC(=O)O)NC2=O (stereo partly drawn) [I-2287, Ac-PL3-Asp-Npg-B5-Asp-3COOHF-Ala-Ala-Phe-Leu-PyrS2-3Thi-3Br4FF-Gln-NH2] |  |  |

| Structure (SMILES) | IC50 [1, 3] | IC50 [2, 4] | IC50 ([1]; read-out: NanoBRET Abs IC50; absolute IC50) | IC50 ([2]; read-out: beta-Catenin FP IC50; fluorescence polarization) |
| --- | --- | --- | --- | --- |
| CC(=O)N1CCC[C@]12CC=CCCCC1(CCCC=CCCCOC(=O)N3CC[C@@](C(=O)N[C@@H](Cc4ccsc4)C(=O)N[C@@H](Cc4csc5ccccc45)C(=O)N[C@@H](CC(N)=O)C(=O)N[C@@H](CC(C)C)C(=O)N[C@@H](CC(C)C)C(=O)N[C@@H](CC(C)C)C(N)=O)(C3)NC(=O)[C@H](CC(C)C)NC(=O)[C@H](Cc3ccccc3)NC(=O)[C@H](C)NC(=O)[C@H](C)NC(=O)[C@H](Cc3cccc(C(=O)O)c3)NC(=O)[C@H](CC(=O)O)NC1=O)NC(=O)[C@H](CC(C)(C)C)NC(=O)[C@H](CC(=O)O)NC2=O (stereo partly drawn) [I-2275, Ac-PL3-Asp-Npg-B5-Asp-3COOHF-Ala-Ala-Phe-Leu-PyrS2-3Thi-BztA-Asn-Leu-Leu-Leu-NH2] | 3.5 µM | 117 nM |  |  |
